Activity calls are given as the source filed them.
How the values were obtained:
[1] = Chemical stability of compound at 50 to 500 mg/L at pH 0.18 after 24 hrs at room temperature by LC-MS analysis; type: physicochemical; settings: buffer, pH 0.18, 24 h
Bacillus subtilis [2] = assay: Antibacterial activity against Bacillus subtilis assessed as inhibition of RNA synthesis at 1.5 mg/L after 50 mins by [3H]-uridine incorporation assay; type: functional
Pseudomonas aeruginosa [3] = assay: Antibacterial activity against Pseudomonas aeruginosa CCM 3955 after 24 hrs by microdilution method; type: functional; settings: CCM 3955, 24 h
Escherichia coli [4] = assay: Antibacterial activity against Escherichia coli CCM 3954 after 24 hrs by microdilution method; type: functional; settings: CCM 3954, 24 h
TERT-RPE1 [5] = assay: Cytotoxicity against human RPE1 cells assessed as disruption of cell membrane integrity at >80 mg/L after 4 hrs by CytoTox-ONE-based assay; settings: tert-rpe1, 4 h
Salmonella enteritidis = assay: Antibacterial activity against Salmonella enteritidis S2-25 after 24 hrs by microdilution method; type: functional, Salmonella enterica subsp. enterica serovar Enteritidis; settings: Salmonella enterica, S2-25, 24 h
[6] = Chemical stability of compound at 50 to 500 mg/L at pH 5 after 24 hrs at 37 degC by LC-MS analysis; type: physicochemical; settings: buffer, pH 5, 24 h
BJ = assay: Cytotoxicity against human BJ cells assessed as reduction in cell viability after 48 hrs by ATPlite reagent based assay
Pseudomonas aeruginosa [7] = assay: Antibacterial activity against Pseudomonas aeruginosa 16575 after 24 hrs by microdilution method; type: functional; settings: Pseudomonas aeruginosa, 16575, 24 h
[8] = tested on: Stenotrophomonas maltophilia; assay: Antibacterial activity against Stenotrophomonas maltophilia S2-23 after 24 hrs by microdilution method; type: functional; settings: S2-23, 24 h
Escherichia coli [9] = assay: Antibacterial activity against Escherichia coli 16702 after 24 hrs by microdilution method; type: functional; settings: Escherichia coli, 16702, 24 h
[10] = Chemical stability of compound at 50 to 500 mg/L at pH 5 after 24 hrs at room temperature by LC-MS analysis; type: physicochemical; settings: buffer, pH 5, 24 h
TERT-RPE1 [11] = assay: Induction of apoptosis in human RPE1 cells assessed as caspase 3/7 activation up to 80 mg/L after 4 hrs by caspase-Glo 3/7 luminescent assay; type: cell-based; settings: tert-rpe1, 4 h
Staphylococcus aureus [12] = assay: Bactericidal activity against Staphylococcus aureus CCM 4223 assessed as reduction in bacterial count at 25 mg/L after 6 hrs by time kill assay; type: functional
Bacillus subtilis [13] = assay: Antibacterial activity against Bacillus subtilis assessed as inhibition of DNA synthesis at 1.5 mg/L after 50 mins by [3H]thymidine incorporation assay; type: functional
Escherichia coli [14] = assay: Induction of cytoplasmic membrane permeabilization in Escherichia coli CCM 3954 assessed as increase in propidium iodide fluorescence intensity at 5 mg/L by spectrofluorometric analysis; type: functional
Bacillus subtilis [15] = assay: Antibacterial activity against Bacillus subtilis assessed as inhibition of peptidoglycan synthesis at 1.5 mg/L after 50 mins by [3H]-N-acetylglucosamine incorporation assay; type: functional
Lipid bilayer = assay: Binding affinity to DOPG large unilamellar vesicle assessed as carboxyfluorescein leakage at 10 mg/L after 20 secs by fluorescence-based assay relative to control
[16] = Critical micellar concentration of the compound by capillary electrophoresis method
[17] = Chemical stability of compound at 50 to 500 mg/L at pH 0.18 after 24 hrs at 37 degC by LC-MS analysis; type: physicochemical; settings: buffer, pH 0.18, 24 h
Mus musculus [18] = assay: Toxicity in ICR mouse assessed as body weight loss up to 2000 mg/kg, po administered as single dose measured for 2 weeks; type: organism-based; settings: in vivo, 336 h
[19] = Pore forming activity across black lipid bilayer membranes assessed as induction of variation in membrane current by measuring pore conductance at 5 ug/ml
HepG2 [20] = assay: Induction of apoptosis in human HepG2 cells assessed as caspase 3/7 activation up to 80 mg/L after 4 hrs by caspase-Glo 3/7 luminescent assay; type: cell-based; settings: hepg2, 4 h
Enterococcus faecalis = assay: Antibacterial activity against Enterococcus faecalis CCM 4224 after 24 hrs by microdilution method; type: functional; settings: CCM 4224, 24 h
Staphylococcus aureus [21] = assay: Bactericidal activity against Staphylococcus aureus CCM 4223 assessed as reduction in bacterial count at 6.25 to 12.5 mg/L after 24 hrs by time kill assay; type: functional
Acinetobacter baumannii = assay: Antibacterial activity against Acinetobacter baumannii A3-08 after 24 hrs by microdilution method; type: functional; settings: A3-08, 24 h
HepG2 [22] = assay: Cytotoxicity against human HepG2 cells assessed as reduction in cell viability after 48 hrs by ATPlite reagent based assay; settings: hepg2, 48 h
Oryctolagus cuniculus [23] = assay: Toxicity in topically applied rabbit assessed as skin irritation measured by measuring physiological abnormalities up to 7 days post dose; settings: in vivo, topical_or_ocular, 168 h
Pseudomonas aeruginosa [24] = assay: Induction of cytoplasmic membrane permeabilization in Pseudomonas aeruginosa CCM 3955 assessed as increase in propidium iodide fluorescence intensity at 5 mg/L by spectrofluorometric analysis; type: functional
[25] = Chemical stability of compound at 50 to 500 mg/L at pH 8.8 after 24 hrs at 37 degC by LC-MS analysis; type: physicochemical; settings: buffer, pH 8.8, 24 h
Escherichia coli [26] = assay: Bactericidal activity against Escherichia coli CCM 3954 assessed as reduction in bacterial count at 12.5 mg/L after 45 mins by time kill assay; type: functional
J774.A1 = assay: Cytotoxicity against mouse J774A.1 cells assessed as damage to cell membrane by measuring propidium iodide intake at 5 mg/L by spectrofluorometric analysis; type: cell-based
Bacillus subtilis [27] = assay: Antibacterial activity against Bacillus subtilis after 24 hrs by microdilution method; type: functional
Streptococcus agalactiae = assay: Antibacterial activity against Streptococcus agalactiae after 24 hrs by microdilution method; type: functional
TERT-RPE1 [28] = assay: Cytotoxicity against human RPE1 cells assessed as disruption of cell membrane integrity after 4 hrs by CytoTox-ONE-based assay; settings: tert-rpe1, 4 h
Burkholderia multivorans = assay: Antibacterial activity against Burkholderia multivorans after 24 hrs by microdilution method; type: functional
Staphylococcus aureus [29] = assay: Antibacterial activity against methicillin-resistant Staphylococcus aureus 4591 clinical isolates after 24 hrs by microdilution method; type: functional; settings: Staphylococcus aureus, 4591, 24 h
Mus musculus [30] = assay: Toxicity in ICR mouse assessed as mortality up to 2000 mg/kg, po administered as single dose measured for 2 weeks; type: organism-based; settings: in vivo, 336 h
Escherichia coli [31] = assay: Bactericidal activity against Escherichia coli CCM 3954 assessed as reduction in bacterial count at 25 mg/L after 30 mins by time kill assay; type: functional
Staphylococcus aureus [32] = assay: Induction of cytoplasmic membrane permeabilization in Staphylococcus aureus CCM 4223 assessed as increase in propidium iodide fluorescence intensity at 5 mg/L by spectrofluorometric analysis; type: functional
[33] = tested on: Staphylococcus haemolyticus; assay: Antibacterial activity against fluoroquinolne-resistant Staphylococcus haemolyticus 16568 after 24 hrs by microdilution method; type: functional; settings: Staphylococcus haemolyticus, 16568, 24 h
Bacillus subtilis [34] = assay: Antibacterial activity against Bacillus subtilis assessed as inhibition of plasma membrane lipids synthesis at 1.5 mg/L after 50 mins by [3H]-sodium acetate incorporation assay; type: functional
Enterococcus faecium = assay: Antibacterial activity against vancomycin-resistant Enterococcus faecium 419/ana clinical isolates after 24 hrs by microdilution method; type: functional
Staphylococcus aureus [35] = assay: Antibacterial activity against Staphylococcus aureus CCM 4223 after 24 hrs by microdilution method; type: functional; settings: CCM 4223, 24 h
HepG2 [36] = assay: Cytotoxicity against human HepG2 cells assessed as disruption of cell membrane integrity after 4 hrs by CytoTox-ONE-based assay; settings: hepg2, 4 h
[37] = tested on: Staphylococcus epidermidis; assay: Antibacterial activity against Staphylococcus epidermidis 8700/B after 24 hrs by microdilution method; type: functional
Oryctolagus cuniculus [38] = assay: Toxicity in topically dosed rabbit assessed as skin irritation by measuring behavioral abnormalities measured up to 7 days post dose; type: organism-based; settings: in vivo, topical_or_ocular, 168 h
TERT-RPE1 [39] = assay: Cytotoxicity against human RPE1 cells assessed as reduction in cell viability after 48 hrs by ATPlite reagent based assay; settings: tert-rpe1, 48 h
[40] = Chemical stability of compound at 50 to 500 mg/L at pH 8.8 after 24 hrs at room temperature by LC-MS analysis; type: physicochemical; settings: buffer, pH 8.8, 24 h
Bacillus subtilis [41] = assay: Antibacterial activity against Bacillus subtilis assessed as inhibition of protein synthesis at 1.5 mg/L after 50 mins by [35S]-methionine incorporation assay; type: functional
[42] = tested on: Staphylococcus epidermidis; assay: Induction of cytoplasmic membrane permeabilization in Staphylococcus epidermidis 8700/B assessed as increase in propidium iodide fluorescence intensity at 5 mg/L by spectrofluorometric analysis; type: functional
Oryctolagus cuniculus [43] = assay: Toxicity in topically applied rabbit assessed as skin irritation measured up to 14 days post dose; settings: in vivo, topical_or_ocular, 336 h

CCCCCCCCCCCCCCCOP(=O)(CCN(CCCNC(=N)N)CCCNC(=N)N)OC[C@H]1O[C@@H](n2ccc(=O)[nH]c2=O)[C@H](O)[C@@H]1O (some centres not stated)
3.13 µg/mL: MIC [8] | MIC (Acinetobacter baumannii) | MIC (Staphylococcus aureus [29]) | MIC (Staphylococcus aureus [35])
1.56 µg/mL: MIC (Salmonella enteritidis) | MIC (Pseudomonas aeruginosa [7]) | MIC (Streptococcus agalactiae) | MIC [33] | MIC [37]
36.7 mg/L: Activity (HepG2 [22])
Stable: Stability [1] | Stability [6] | Stability [10] | Stability [17] | Stability [25] | Stability [40]
active: Activity (Staphylococcus aureus [12]) | Activity (Escherichia coli [14]) | Activity (Staphylococcus aureus [21]) | Activity (Pseudomonas aeruginosa [24]) | Activity (Escherichia coli [26]) | Activity (Escherichia coli [31]) | Activity (Staphylococcus aureus [32]) | Activity [42]
< 85%: Activity (Lipid bilayer)
Non-Toxic: Activity (TERT-RPE1 [5]) | Activity (TERT-RPE1 [11]) | Activity (Mus musculus [18]) | Activity (HepG2 [20]) | Activity (Oryctolagus cuniculus [23]) | Activity (J774.A1) | Activity (TERT-RPE1 [28]) | Activity (Mus musculus [30]) | Activity (HepG2 [36]) | Activity (Oryctolagus cuniculus [38]) | Activity (Oryctolagus cuniculus [43])
23 to 168 pS: Activity [19]
0.78 µg/mL: MIC (Pseudomonas aeruginosa [3]) | MIC (Escherichia coli [4]) | MIC (Escherichia coli [9])
inactive: inhibition (Bacillus subtilis [2]) | inhibition (Bacillus subtilis [13]) | inhibition (Bacillus subtilis [15]) | inhibition (Bacillus subtilis [34]) | inhibition (Bacillus subtilis [41])
50 µg/mL: MIC (Enterococcus faecium)
25 µg/mL: MIC (Enterococcus faecalis) | MIC (Burkholderia multivorans)
0.39 µg/mL: MIC (Bacillus subtilis [27])
39.8 mg/L: Activity (TERT-RPE1 [39])
29.6 mg/L: Activity (BJ)
1.42 mM: CMC [16]
